“And” between values parts separate entries of the source, which are not always exact repeats. Identical values can stand only once. Like-named read-outs stand apart in the source and are kept apart here. Blank lines part the entries; values can stand above or below the compound they belong to.
What was measured:
MOLM-13 cells = assay: TMT quantitative proteomics in MOLM-13; assay type: cell-based, human; conditions: for Proteins with significantly reduced abundance (TMT proteomics): 1 μM; for TMT protein intensity, CDKN1A, replicate values: DMSO 3.10E+04, 3.47E+04; for TMT protein intensity, CSNK1A1, replicate values: DMSO 4.01E+05, 4.09E+05
Description: We next carried out a tandem mass tag (TMT) quantitative proteomics experiment[30] to identify the neosubstrates whose degradation is induced by SJ7095. […] We confirmed the proteomics results by immunoblot analysis of CK1α in MOLM-13 cells following treatment with increasing concentrations of SJ7095 over 4 h (Fig. 2b). Under these conditions compound SJ7095 induced dose-dependent reduction of CK1α protein levels with DC50 value of 15 nM.
Each compound was tested in three wells of 2 million MOLM-13 cells each. […] Cells were then collected and washed with DPBS. Washed cells were centrifuged at 400×g for 5 min at 4 °C, the supernatant was removed, and pellets were snap frozen in liquid nitrogen and stored at −80 °C until sample submission.
The experiment was performed with a previously optimized protocol[30] with slight modification. Cell pellets were lysed in lysis buffer (50 mM HEPES, pH 8.5, 8 M urea, and 0.5% sodium deoxycholate). To profile the whole proteome, the protein lysates (approximately 100 µg of protein per sample) were proteolyzed with LysC (Wako) at an enzyme-to-substrate ratio of 1:100 (w/w) for 2 h at 21 °C. Following this the samples were diluted to a final 2 M Urea concentration, and further digested with trypsin (Promega) at an enzyme-to-substrate ratio of 1:50 (w/w) for at least 3 h. The peptides were reduced by adding 1 mM DTT for 30 min at 21 °C followed by alkylation with 10 mM iodoacetamide (IAA) for 30 min in the dark. The unreacted IAA was quenched with 30 mM DTT for 30 min. Finally, the digestion was stopped by adding trifluoroacetic acid (TFA) to 1%, desalted using C18 cartridges (Harvard Apparatus), and dried by speedvac. The purified peptides were resuspended in 50 mM HEPES (pH 8.5), and labeled with TMT reagents (Thermo Scientific). The differentially labeled samples were pooled equally, desalted, and dried for the subsequent peptide fractionation. Peptide analysis by two-dimensional liquid chromatography–tandem mass spectrometry (LC/LC–MS/MS) and MS data analysis are described in Supplementary Material. […]
Identification/quantification of proteins
The MS/MS raw data were processed by a tag-based hybrid search engine, JUMP7. The data was […]
concatenated with a reversed decoy database for evaluating False Discovery Rate (FDR). Searches were performed using a 15 ppm mass tolerance for precursor ions, fully tryptic restriction with two maximal missed cleavages, three maximal modification sites, and the assignment of b, and y ions.
TMT tags on lysine residues and N-termini (+304.2071453 Da for TMT16 and TMT18) were used for static modifications. In addition, oxidation of Methionine (Met) was considered as a dynamic modification (+15.99492 Da). Putative peptide spectral matches (PSMs) were filtered by mass accuracy and then grouped by precursor ion charge state and further filtered by JUMP-based matching scores, Jscore and ΔJn, to achieve the protein FDR below 1%. For quantification, TMT intensities of reporter ions were extracted, filtered, normalized, and summarized into peptide and […]
Differential expression analysis of proteins
Identification of differentially expressed proteins were conducted by the limma R package8. To control multiple testing, the Benjamini-Hochberg method was employed. Proteins with an adjusted […]
p value of < 0.05 and log2 fold change of > 2-fold of standard deviation (SD) were defined as differentially expressed. […]

IKZF1 = molecular target: T1, IKZF1 (Homo sapiens, UniProt Q13422+Q96SW2); assay: IKZF1 HiBiT live-cell kinetic degradation assay (Jurkat cells); assay type: cell-based
T1 construct: engineered by CRISPR/Cas9 to express endogenous IKZF1 (Jurkat cells) with a HiBiT tag
Excerpt: To measure cellular protein levels, we used cell lines that have been engineered by CRISPR/Cas9 to express endogenous CK1α (HEK293 cells) or IKZF1 (Jurkat cells) with a HiBiT tag, which when coupled with LgBiT expression forms NanoBiT, a bioluminescent protein that can be used for kinetic studies of protein degradation. […] Cell viability was also monitored with CellTiter Glo 2.0 (Promega) at the completion of the experiment to ensure that loss of protein was not a consequence of a loss of cell viability.
IKZF1-HiBiT Jurkat LgBiT stable cells were seeded at 60,000 cells/well in 50% growth media/50% CO2 independent medium supplemented with 10% FBS and 1× Endurazine substrate. […] A dose–response curve was generated by performing 3-fold dilutions of each compound including a DMSO-only control in growth media. For live cell kinetic degradation assays, diluted compounds were added to CK1α and β-catenin plates and placed in a GloMax Discover (Promega, Cat. #GM3000) preheated to 37 °C or added to IKZF1 plates and placed in a CLARIOstar Plus (BMG LABTECH) preheated to 37 °C.
Relative protein level was determined based on normalization to the DMSO control and reported at Fractional RLUs. Degradation rate and degradation maximums were calculated from Fractional RLUs as previously described[38] using GraphPad Prism software. β-catenin stabilization time of onset for each concentration curve was calculated in GraphPad Prism by fitting an unconstrained plateau followed by one phase association model using the equation below (Y = IF(X < X0, Y0,Y0+(Plateau−Y0)*(1−exp(−K*(X−X0))))). The parameter, X0 was used as time of onset for each compound concentration.

[1] = Jurkat, 0.111 uM, read-out: IKZF1 Percent Maximum Degradation
[2] = Jurkat, 10 µM, over 24 h, read-out: IKZF1 Dmax (HiBiT)

T1 sequence (Q13422 whole entry): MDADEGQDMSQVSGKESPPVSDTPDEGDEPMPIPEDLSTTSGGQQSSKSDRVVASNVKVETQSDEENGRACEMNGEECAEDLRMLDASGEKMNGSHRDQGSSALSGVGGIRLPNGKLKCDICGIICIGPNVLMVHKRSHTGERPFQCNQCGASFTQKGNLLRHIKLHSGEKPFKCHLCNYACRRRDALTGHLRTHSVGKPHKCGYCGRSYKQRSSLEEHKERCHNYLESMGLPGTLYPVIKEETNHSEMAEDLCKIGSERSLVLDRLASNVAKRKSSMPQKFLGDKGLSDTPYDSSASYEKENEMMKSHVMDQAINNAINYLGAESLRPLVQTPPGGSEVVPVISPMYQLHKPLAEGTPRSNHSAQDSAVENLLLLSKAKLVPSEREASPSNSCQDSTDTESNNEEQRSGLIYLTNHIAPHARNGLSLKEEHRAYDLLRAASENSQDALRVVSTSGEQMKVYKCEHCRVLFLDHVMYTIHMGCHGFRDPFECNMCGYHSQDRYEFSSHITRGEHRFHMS
T1 sequence (Q96SW2 whole entry): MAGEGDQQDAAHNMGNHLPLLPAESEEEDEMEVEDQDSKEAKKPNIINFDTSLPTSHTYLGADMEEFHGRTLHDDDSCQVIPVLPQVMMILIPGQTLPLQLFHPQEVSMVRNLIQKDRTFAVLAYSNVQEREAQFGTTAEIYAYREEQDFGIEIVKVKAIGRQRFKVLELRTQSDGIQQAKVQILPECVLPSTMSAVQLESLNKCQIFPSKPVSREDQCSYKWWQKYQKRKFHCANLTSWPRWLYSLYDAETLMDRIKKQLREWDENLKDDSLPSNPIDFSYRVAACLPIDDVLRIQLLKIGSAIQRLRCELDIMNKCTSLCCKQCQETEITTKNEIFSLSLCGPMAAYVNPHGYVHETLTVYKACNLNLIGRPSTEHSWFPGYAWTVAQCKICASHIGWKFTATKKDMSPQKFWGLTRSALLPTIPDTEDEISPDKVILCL
T1 sequence (Q16531 whole entry partner): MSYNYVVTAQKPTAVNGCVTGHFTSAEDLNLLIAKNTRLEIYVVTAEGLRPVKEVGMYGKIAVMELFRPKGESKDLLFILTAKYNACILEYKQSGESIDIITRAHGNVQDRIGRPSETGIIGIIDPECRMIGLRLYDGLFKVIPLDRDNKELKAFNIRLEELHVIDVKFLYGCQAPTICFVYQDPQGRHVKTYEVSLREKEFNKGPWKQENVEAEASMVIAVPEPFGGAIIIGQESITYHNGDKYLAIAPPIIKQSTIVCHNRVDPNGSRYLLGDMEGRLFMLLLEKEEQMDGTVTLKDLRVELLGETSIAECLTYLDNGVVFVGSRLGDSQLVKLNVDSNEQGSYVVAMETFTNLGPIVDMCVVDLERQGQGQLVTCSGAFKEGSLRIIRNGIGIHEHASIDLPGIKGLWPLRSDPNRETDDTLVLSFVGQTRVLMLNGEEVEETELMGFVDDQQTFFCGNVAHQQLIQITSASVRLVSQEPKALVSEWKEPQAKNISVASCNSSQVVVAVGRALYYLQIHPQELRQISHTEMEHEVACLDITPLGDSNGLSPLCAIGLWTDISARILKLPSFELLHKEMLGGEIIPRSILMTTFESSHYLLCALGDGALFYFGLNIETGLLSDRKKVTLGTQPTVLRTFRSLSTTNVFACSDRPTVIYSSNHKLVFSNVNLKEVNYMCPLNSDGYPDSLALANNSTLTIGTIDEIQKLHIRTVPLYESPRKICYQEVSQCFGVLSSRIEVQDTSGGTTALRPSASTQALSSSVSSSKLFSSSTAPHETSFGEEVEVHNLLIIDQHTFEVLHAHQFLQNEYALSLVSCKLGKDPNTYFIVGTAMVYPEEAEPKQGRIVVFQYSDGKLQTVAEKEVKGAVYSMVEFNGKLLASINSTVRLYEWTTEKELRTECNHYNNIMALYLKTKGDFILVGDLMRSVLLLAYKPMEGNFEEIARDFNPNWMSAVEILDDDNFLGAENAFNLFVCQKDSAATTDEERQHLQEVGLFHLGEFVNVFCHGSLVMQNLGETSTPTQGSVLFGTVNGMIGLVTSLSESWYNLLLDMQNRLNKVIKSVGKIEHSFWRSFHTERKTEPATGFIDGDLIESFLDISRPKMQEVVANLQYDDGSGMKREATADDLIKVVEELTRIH

IKZF1 Percent Maximum Degradation (IKZF1; 10 uM, replicates, listed as SJ10040): -2.54% and -2.18% and 5.17% and -2.35%
Dmax at 0.111 µM (IKZF1; [1]): 0%
Dmax at 10 µM (IKZF1; [2]): < 10%
Compound: Cc1cccc(C(=O)Nc2ccc3c(c2)CN(C2CCC(=O)NC2=O)C3=O)c1 (stereo not shown) [SJ0040]
Proteins with significantly reduced abundance (TMT proteomics) (MOLM-13 cells; 4 h): significantly reduced the abundance of only CK1α out of >9000 proteins
Log2FC vs. DMSO, BHLHE40 (MOLM-13 cells; 1uM, 4h): 0.522
Log2FC vs. DMSO, CSNK1A1 (MOLM-13 cells; 1uM, 4h): -1.896

Compound: O=C1CCC(N2Cc3cc(Nc4noc5ccccc45)ccc3C2=O)C(=O)N1 (stereo not shown) [SJ3149]
Proteins with significantly reduced abundance (TMT proteomics) (MOLM-13 cells; 4 h): significantly reduced the abundance of only CK1α out of >9000 proteins
Log2FC vs. DMSO, CSNK1A1 (MOLM-13 cells; 1uM, 4h): -0.851
Log2FC vs. DMSO, CTNNB1 (MOLM-13 cells; 1uM, 4h): 1.473
IKZF1 Percent Maximum Degradation (IKZF1; 10 uM, replicates): 11.66% and -2.50% and 4.13% and 1.42%
Dmax at 10 µM (IKZF1; [2]): < 10%

IKZF1 Percent Maximum Degradation (IKZF1; 0.111 uM): 51.56% and 53.98% and 57.51%
IKZF1 Percent Maximum Degradation (IKZF1; 0.333 uM): 65.57% and 67.60% and 69.65%
IKZF1 Percent Maximum Degradation (IKZF1; 1 uM): 74.04% and 75.26% and 77.24%
IKZF1 Percent Maximum Degradation (IKZF1; 3 uM): 79.22% and 78.05% and 80.15%
IKZF1 Percent Maximum Degradation (IKZF1; 10 uM, replicates): 80.57% and 81.85% and 92.17%
Dmax at 0.111 µM (IKZF1; [1]): 51.7%
Dmax at 0.333 µM (IKZF1; Jurkat, 0.333 uM, read-out: IKZF1 Percent Maximum Degradation): 64.8%
Dmax at 1 µM (IKZF1; Jurkat, 1 uM, read-out: IKZF1 Percent Maximum Degradation): 73.8%
Dmax at 3 µM (IKZF1; Jurkat, 3 uM, read-out: IKZF1 Percent Maximum Degradation): 78.4%
Dmax at 10 µM (IKZF1; Jurkat, 10 uM, replicates, read-out: IKZF1 Percent Maximum Degradation): 80%
DC50 (IKZF1; Jurkat, at 4 h): 69 nM
Compound: O=C1CCC(N2Cc3c(CNC(=O)c4ccc(F)cc4)cccc3C2=O)C(=O)N1 (stereo not shown) [SJ7095]
Log2FC vs. DMSO, CDKN1A (Cyclin-dependent kinase inhibitor 1) (MOLM-13 cells; 1uM, 4h): 1.031
Log2FC vs. DMSO, CSNK1A1 (Casein kinase I isoform alpha) (MOLM-13 cells; 1uM, 4h): -1.331
TMT protein intensity, CDKN1A, replicate values (MOLM-13 cells; 1uM, 4h): 6.19E+04 and 7.24E+04
TMT protein intensity, CSNK1A1, replicate values (MOLM-13 cells; 1uM, 4h): 1.55E+05 and 1.67E+05
Log2FC vs. DMSO, CDKN1A (Cyclin-dependent kinase inhibitor 1) (MOLM-13 cells; 1uM, 8h): 1.234
Log2FC vs. DMSO, CSNK1A1 (Casein kinase I isoform alpha) (MOLM-13 cells; 1uM, 8h): -1.306
TMT protein intensity, CDKN1A, replicate values (MOLM-13 cells; 1uM, 8h): 7.09E+04 and 8.39E+04
TMT protein intensity, CSNK1A1, replicate values (MOLM-13 cells; 1uM, 8h): 1.62E+05 and 1.65E+05
Log2FC vs. DMSO, CDKN1A (Cyclin-dependent kinase inhibitor 1) (MOLM-13 cells; 1uM, 24h): 1.074
Log2FC vs. DMSO, CSNK1A1 (Casein kinase I isoform alpha) (MOLM-13 cells; 1uM, 24h): -1.500
TMT protein intensity, CDKN1A, replicate values (MOLM-13 cells; 1uM, 24h): 7.28E+04 and 6.55E+04
TMT protein intensity, CSNK1A1, replicate values (MOLM-13 cells; 1uM, 24h): 1.44E+05 and 1.42E+05
Proteins significantly degraded (TMT proteomics) (MOLM-13 cells; 5 µM, 4 h): significant degradation of only three proteins out of over 9000 identified proteins was observed: CK1α, IKZF1, and IKZF3
Log2FC vs. DMSO, CDKN1A (MOLM-13 cells; 5uM, 4h): 1.546
Log2FC vs. DMSO, CSNK1A1 (MOLM-13 cells; 5uM, 4h): -1.318
Log2FC vs. DMSO, CDKN1A (Cyclin-dependent kinase inhibitor 1) (MOLM-13 cells; 5uM, 8h): 1.278
Log2FC vs. DMSO, CSNK1A1 (Casein kinase I isoform alpha) (MOLM-13 cells; 5uM, 8h): -1.485
TMT protein intensity, CDKN1A, replicate values (MOLM-13 cells; 5uM, 8h): 8.76E+04 and 7.22E+04
TMT protein intensity, CSNK1A1, replicate values (MOLM-13 cells; 5uM, 8h): 1.51E+05 and 1.38E+05
Log2FC vs. DMSO, CDKN1A (Cyclin-dependent kinase inhibitor 1) (MOLM-13 cells; 5uM, 24h): 1.163
Log2FC vs. DMSO, CSNK1A1 (Casein kinase I isoform alpha) (MOLM-13 cells; 5uM, 24h): -1.582
TMT protein intensity, CDKN1A, replicate values (MOLM-13 cells; 5uM, 24h): 7.42E+04 and 7.27E+04
TMT protein intensity, CSNK1A1, replicate values (MOLM-13 cells; 5uM, 24h): 1.48E+05 and 1.23E+05
Log2FC vs. DMSO, CDKN1A (Cyclin-dependent kinase inhibitor 1) (MOLM-13 cells; 10uM, 4h): 1.536
Log2FC vs. DMSO, CSNK1A1 (Casein kinase I isoform alpha) (MOLM-13 cells; 10uM, 4h): -1.354
TMT protein intensity, CDKN1A, replicate values (MOLM-13 cells; 10uM, 4h): 1.01E+05 and 8.94E+04
TMT protein intensity, CSNK1A1, replicate values (MOLM-13 cells; 10uM, 4h): 1.47E+05 and 1.71E+05
